Read-outs that look alike come from different tables or passages of the source.
Key:
A.E7 T cell clones = assay: Cytokine production and CD25 expression of A.E7s stimulated with anti-CD3 and anti-CD28 in the presence of CGS; assay type: cell-based; settings: for IC50: T-cell
Experimental: Studies were conducted to determine the effects of A2a receptor stimulation on T cell function. A.E7 is a clonotypic CD4', Th1 T cell clone specific for pigeon cytochrome c (PCC) and is maintained as previously described (Powell, […]. & Schwartz, R. H. Inhibition of cell cycle progression by rapamycin induces T cell clonal anergy even in the presence of costimulation. J Immunol 162, 2775-84 (1999)). A.[…] were rendered anergic with anti-CD3 or by incubation with APC, PCC and 1 pM CGS-21680. For antibody induced anergy, 6-well plates were previously coated with anti-CD3 three hours prior to stimulation and washed with PBS. For mock stimulations, the well was not coated with anti-CD3. A.[…] were incubated in the coated well overnight at 37° C., then harvested and washed extensively and rested (24 hours for CAMP measurement, 4-6 days for proliferation and cytokine production). […] To assess proliferation to PCC, T cells were extensively washed and 5×10^6 cells were added to 50×10^4 irradiated BIO.A splenocytes and increasing doses of PCC in triplicate in a 96-well flat-bottomed plate. After 48 hours, cells were pulsed with [^3H] thymidine and harvested 16 hrs later. Tritium incorporation was determined by a Packard Matrix 96 direct beta counter (Packard bioscience). […] All conditions were done in triplicate and were cultured overnight. Supernatant was collected and assessed for cytokine levels (eBioscience for IL-2, IFN-y, TNF-a; R&D Systems for GM-CSF) as per manufacturers' instructions. For each sample, multiple dilutions of the supernatant were assayed and concentration was determined based upon the dilution that best fit the most linear aspect of the standard curve. For CD25 measurements, the cells used for cytokine production were stained with anti-CD25, harvested and measured by flow cytometry.

A.E7 T cells = assay: Anergy induction in A.E7 T cells: incubation with APCs, PCC and CGS, then rechallenge without CGS; assay type: cell-based
Experimental: A.E7 is a clonotypic CD4^+, Th1 T cell clone specific for pigeon cytochrome c (PCC) and is maintained as previously described (Powell et al. J Immunol. 1999; 162:2775-2784).
Studies were conducted to determine the effects of A2a receptor stimulation on T cell function. A.E7 is a clonotypic CD4′, Th1 T cell clone specific for pigeon cytochrome c (PCC) and is maintained as previously described (Powell, J. D., Lerner, C. G. & Schwartz, R. H. Inhibition of cell cycle progression by rapamycin induces T cell clonal anergy even in the presence of costimulation. J Immunol 162, 2775-84 (1999)). A.E7s were rendered anergic with anti-CD3 or by incubation with APC, PCC and […] CGS-21680. For antibody induced anergy, 6-well plates were previously coated with anti-CD3 three hours prior to stimulation and washed with PBS. For mock stimulations, the well was not coated with anti-CD3. A.E7s were incubated in the coated well overnight at 37° C., then harvested and washed extensively and rested (24 hours for CAMP measurement, 4-6 days for proliferation and cytokine production). […] A.E7s were then isolated via a ficoll gradient, washed extensively, and immediately rechallenged for proliferation and cytokine production. To assess proliferation to PCC, T cells were extensively washed and 5×10^6 cells were added to 50×10^4 irradiated BIO.A splenocytes and increasing doses of PCC in triplicate in a 96-well flat-bottomed plate. After 48 hours, cells were pulsed with [^3H] thymidine and harvested 16 hrs later. Tritium incorporation was determined by a Packard Matrix 96 direct beta counter (Packard bioscience). For cytokine production, a 96-well round-bottom plate was preincubated with […] anti-CD3 for 3 hours. […] All conditions were done in triplicate and were cultured overnight. Supernatant was collected and assessed for cytokine levels (eBioscience for IL-2, IFN-y, TNF-a; R&D Systems for GM-CSF) as per manufacturers' instructions. For each sample, multiple dilutions of the supernatant were assayed and concentration was determined based upon the dilution that best fit the most linear aspect of the standard curve. For CD25 measurements, the cells used for cytokine production were stained with anti-CD25, harvested and measured by flow cytometry.
Next, the T cells were isolated and rechallenged with APCs and peptide in the absence of CGS (secondary stimulation).

[1] = tested on: ERK phosphorylation, jun B, AP-1; assay: Western blot for phospho-ERK and jun B, and EMSA for AP-1, after T cell stimulation with or without CGS; assay type: cell-based, mice
Experimental: For phospho-ERK and total ERK Western blots, splenocytes from 6.5^+ mice were stimulated overnight with 10 ug/mL HA class II peptide then harvested and enriched for CD4^+ T cells. CD4^+ purified T cells were then stimulated in 500 uL with soluble anti-CD3 (10 ug/mL) and soluble anti-CD28 (1:20 dilution).
Nuclear extracts from CD4^+ purified 6.5^+ T cells that were prepared. The AP-1 probe was: 5′-CGCTTGATGACTCAGCCGGAA-3′. The NFkB probe was: 5′-AGTTGAGGGGACTTTCCCAGGC-3′.

[2] = tested on: 6.5+ T cells in C3HA mice; assay: Survival of C3HA mice after adoptive transfer of 6.5+ T cells (mouse model of autoimmunity); assay type: in vivo
Experimental: Clonotypic CD4^+ T cells were harvested from 6.5^+ transgenic mice. The unfractionated population was resuspended to contain 1.2×10^6 6.5^+ T cells in 200 uL of HBSS for i.v. injection through the tail vein of C3HA mice. […] The percentage of CD4^+, 6.5^+, Thy 1.1^−, Thy 1.2^− clonotypic T cells was determined by flow cytometric analysis. CD44 level was also analyzed to ensure that these clonotypic T cells were not activated in donor mice and were naive in phenotype. The cells were washed three times with HBSS and the unfractionated population was resuspended to contain the appropriate number of clonotypic T cells in 200 uL of HBSS for i.v. injection through the tail vein of C3HA.
A survival curve was generated from two separate experiments for a total of 17 mice for each condition.

Question: What does the source list for CCNC(=O)[C@H]1O[C@@H](n2cnc3c(N)nc(NCCc4ccc(CCC(=O)O)cc4)nc32)[C@H](O)[C@@H]1O [CGS, 2-p-(2-carboxyethyl)phenethyl-amino-5-N-ethyl-carboxamidoadenosine]?
Answer: cytokine production (A.E7 T cell clones; A.E7 T cell clones activated with anti-CD3 and anti-CD28 in the presence of CGS): dose-dependent inhibition; IC50 (A.E7 T cell clones; read-out: ID50, inhibition of GM-CSF production): 9.1 nM; IC50 (A.E7 T cell clones; read-out: ID50, inhibition of IFN-γ production): 760 nM; IC50 (A.E7 T cell clones; read-out: ID50, inhibition of IL-2 production): 4.7 nM; IC50 (A.E7 T cell clones; read-out: ID50, inhibition of TNF-α production): 100 nM; production of the chemokine MIP-1α (A.E7 T cell clones; anti-CD3 and anti-CD28, 20 nM CGS (FIG. 1d)): not inhibited; TCR-induced CD25 expression (A.E7 T cell clones; anti-CD3 and anti-CD28, 1 μM CGS (FIG. 1b)): did not inhibit; IL-2 production (A.E7 T cell clones; anti-CD3 and anti-CD28 in the presence of the A2a receptor agonist, 20 nM CGS (FIG. 1d)): markedly decreased; response upon rechallenge after mock induction (A.E7 T cells; 1 μM CGS during mock induction, no peptide present, rechallenge without CGS (FIG. 2a)): no effect; proliferation upon rechallenge (A.E7 T cells; 1 μM CGS with peptide during initial stimulation, rechallenge without CGS (FIG. 2b)): reduced proliferation; IFN-γ production upon rechallenge (A.E7 T cells; 1 μM CGS with peptide during initial stimulation, rechallenge without CGS (FIG. 2c)): reduced; induction of anergy in the presence of exogenous IL-2 (A.E7 T cells; peptide, exogenous IL-2 and 1 μM CGS during induction (FIGS. 2d and e)): the presence of IL-2 prevented the ability of CGS to induce anergy; ERK phosphorylation ([1]; Signal 1+2, 1 μM CGS (FIG. 3d)): inhibited ERK phosphorylation; jun B expression in the nucleus ([1]; T cell stimulation, 1 μM CGS (FIG. 3e)): reduced jun B expression; AP-1 binding (EMSA) ([1]; T cell stimulation, 1 μM CGS (FIG. 3f)): lowered AP-1 binding; effect on mice receiving LAG-3 null T cells ([2]; C3HA mice receiving LAG-3 null T cells, 4 day treatment with CGS (FIG. 5c)): no affect; mice in which death was prevented, Wt T cells ([2]; C3HA mice receiving Wt T cells, 4 day treatment with CGS (FIG. 5c)): 100%; long-term survival of mice ([2]; C3HA mice, lethal dose of 6.5+ T cells, CGS 2.5 mg/kg i.p. twice daily for four days after transfer (FIG. 4a)): 80%; protection of mice given A2a receptor KO T cells ([2]; C3HA recipients given A2a receptor KO 6.5+ T cells, CGS treatment (FIG. 4d)): fails to protect

— patent US9585957B2, “Adenosine receptor agonists and antagonists to modulate T cell responses” (THE JOHNS HOPKINS UNIVERSITY, priority 2007, dated 2017)
